Laboratory results from patent publication US20230337664A1, “FRUIT FLY CONTROL” (MACQUARIE UNIVERSITY, priority 2020, published 2023).

Tests used:
[1] = system: Bactrocera tryoni; experiment: Oviposition assay for Bactrocera tryoni; assay type: in vivo; settings: 1.17% w/v in agar plate with γ-octalactone; P<0.0001
Experimental: Agar plates with oviposition stimulant (OS; γ-octalactone) with 1-octanol (1.17% w/v) or 1-nonanol (1.17% w/v) were used as oviposition substrate to determine the oviposition deterrent activity of 1-octanol and 1-nonanol to gravid female B. tryoni. Agarose (0.8 g in 100 ml water) was melted in a microwave, was cooled to 40° C. and appropriate amount of the oviposition stimulant in combination with 1-octanol or 1-nonanol was added. This mixture was poured into Petri plates and cooled at 0° C. in a refrigerator. This was done to enhance setting of the mixture and lower volatile vaporization. Oviposition substrates were prepared freshly when required. Oviposition plate containing OS alone (control), OS+1-octanol or OS+1-nonanol was provided to gravid females (50 gravid females; 15-20 days old) in cages (30×30×30 cm) to lay eggs. The eggs laid in each plate was enumerated under a stereo-dissecting microscope (Olympus, Japan). Thirty replicates for each test compound and control were carried out.

[2] = system: Bactrocera jarvisi; experiment: Oviposition assay for Bactrocera jarvisi; assay type: in vivo; settings: 1.17% in agar plate with mango juice; P<0.0001
Experimental: Agar plates with oviposition stimulant (MJ: Mango Juice) with 1-octanol (1.17%) or 1-nonanol (1.17%) were used as oviposition substrate to determine the oviposition deterrent activity of 1-octanol and 1-nonanol to gravid female B. jarvisi. Agar (0.8 g in 100 ml of diluted mango juice with water; 1:1) melted in a microwave, was cooled to 40° C. and appropriate amount of 1-octanol or 1-nonanol was added. This mixture was poured into Petri plates and cooled to 0° C. in a refrigerator. This was done to enhance setting of the mixture and lower volatile vaporization. Oviposition substrates were prepared freshly when required. Oviposition plate containing MJ alone (control), MJ+1-octanol or MJ+1-nonanol was provided to gravid females (20 gravid females; 15-20 days old) in cages (30×30×30 cm) to lay eggs. The eggs laid in each plate was enumerated under a stereo-dissecting microscope (Olympus, Japan). Twenty four replicates for each test compound and control were carried out.

[3] = system: Zeugodacus cucumis; experiment: Oviposition assay for Zeugodacus cucumis; assay type: in vivo; settings: 1.17% w/v with zucchini juice on agar plate; P<0.0001
Experimental: Agar plates applied with oviposition stimulant (OS: fresh zucchini juice) with 1-octanol (1.17% w/v) or 1-nonanol (1.17% w/v) were used as oviposition substrate to determine the oviposition deterrent activity of 1-octanol and 1-nonanol to gravid female Z. cucumis. Agar (0.8 g in 100 ml water) was melted in a microwave, was cooled to 40° C. and poured into Petri plates and cooled at 0° C. Oviposition stimulant alone or OS mixed with 1-octanol or 1-nonanol (50 ul) was spread on agarose plates. Oviposition substrates were prepared freshly when required. Oviposition plate containing OS alone (control), OS+1-octanol or OS+1-nonanol was provided to gravid females (20 gravid females; 15-20 days old) in cages (30×30×30 cm) to lay eggs. The eggs laid in each plate was enumerated under a stereo-dissecting microscope (Olympus, Japan). Twenty four replicates for each test compound and control were carried out.

[4] = system: Ceratitis capitata; experiment: Oviposition assay for Ceratitis capitata; assay type: in vivo; settings: grapes dipped in 1.17% w/v solution; P<0.0001
Description: Red seedless grapes from IGA express (Murdoch University, Perth) washed with warm water thrice and dried with paper towel were used as oviposition substrate. Solution of 1-octanol (1.17% w/v) or 1-nonanol (1.17% w/v) were made by mixing appropriate amounts of 1-octanol or 1-nonanol in water with ethanol as an emulsifier. Washed grapes of equal size, dipped into the above solutions for 15-20 sec, was provided to gravid females (50 gravid females; 15-20 days old) in cages (30×30×30 cm) to lay eggs. Grapes that were dipped in water and emulsifier mixture was used as control. Eggs laid in each grapes was enumerated under a stereo-dissecting microscope (Olympus, Japan). Forty replicates for each test compound and control were carried out.

[5] = system: Bactrocera kraussi; experiment: Oviposition assay for Bactrocera kraussi; assay type: in vivo; settings: orange segments dipped in 1.17% w/v solution; P<0.0001
Description: Oranges from Woolworths (Marsfield, NSW) were washed with warm water and dried with paper towel. They were peeled and segmented and a single segment was used as oviposition substrate. Solution of 1-octanol (1.17% w/v) or 1-nonanol (1.17% w/v) were made by mixing appropriate amounts of 1-octanol or 1-nonanol in water with ethanol as an emulsifier. Orange segments of equal size, dipped into the above solutions for 15-20 sec, was provided to gravid females flies (20 gravid females; 20 days old) in cages (30×30×30 cm) to lay eggs. Orange segments dipped in water and emulsifier mixture was used as control. Eggs laid in each orange segment was enumerated under a stereo-dissecting microscope (Olympus, Japan). Twelve replicates for each test compound and control were carried out.

[6] = system: Bactrocera tryoni antenna; experiment: GC-EAG responses, Bactrocera tryoni; settings: both sexes
Description: (§1) Coupled Gas Chromatography-Electroantennography (GC-EAG) recordings were made with Ag-glass microelectrodes filled with electroconductive gel (Spectra 360, Parker Laboratories Inc., USA). The head of male or female flies (i.e., Bactrocera tryoni, Bactrocera jarvisi, Bactrocera kraussi, and Zeugodacus cucumis) was separated from the body with a microscalpel and was placed on the tip of the indifferent electrode, making sure the base of the head is affixed to the gel in the electrode. The tip of the insect antenna was made to touch the recording electrode and was slightly inserted into the gel to stabilize the antenna. The mounted heads were under charcoal filtered and humidified air flow (2400 mL min-1) controlled by a flow controller (Stimulus Controller CS-55, Syntech, Hilversum, The Netherlands). The signals were passed through a high impedance amplifier (UN-06, Syntech, Hilversum, The Netherlands). 1-octanol or 1-nonanol were tested individually or as mixture of known concentration. After injection of compounds, the effluent from the GC column was simultaneously directed to the antennal preparation and the GC detector. […] The outputs from the EAG amplifier and the FID were monitored simultaneously and analysed using the GCEAD 2014 software v1.2.5 (Syntech, The Netherlands).

[7] = system: Bactrocera jarvisi antenna; experiment: GC-EAG responses, Bactrocera jarvisi; settings: both sexes
Description: as §1

[8] = system: Bactrocera kraussi antenna; experiment: GC-EAG responses, Bactrocera kraussi; settings: both sexes
Description: as §1

[9] = system: Zeugodacus cucumis antenna; experiment: GC-EAG responses, Zeugodacus cucumis; settings: both sexes
Description: as §1

[10] = system: Ceratitis capitata antenna; experiment: Standalone EAG, Ceratitis capitata; settings: both sexes; ten replicates per compound per sex
Description: For the […], Ceratitis capitata, a standalone EAG was used for antennal recordings. Electroconductive gel (Spectra 360, Parker Laboratories Inc., USA) were applied to the arms of the metal electrodes and the head of male or female fly, separated from the body was affixed onto one of the indifferent metal arm. The recording arm with gel was made to touch a single or both the antenna of the fly. The antennal preparation was inserted to the EAG probe holder that was under filtered and humidified air the same as described above. The EAG signals were passed through a high impedance amplifier (UN-06, Syntech, Hilversum, The Netherlands). 1-Octanol or 1-nonanol of known concentrations were tested individually. The compounds (10 ul) were dispensed on a filter paper and were placed into a pasture pipette. The prepared pipettes were fixed tubing from the stimulus controller (CS-55, Syntech, The Netherlands) and the stimulus was puffed over the antennal preparation. The response was record using EAGPro software (Syntech, The Netherlands). Ten replicates were recorded for each compound per sex, with EAG activity confirmed in 100% of trials presenting 1-octanol or 1-nonanol for both sexes of C. capitata (FIG. 10E).

[11] = system: Bactrocera tryoni; experiment: Four-arm olfactometer bioassay; assay type: in vivo; settings: arm containing C1 vs without
Experimental: An acrylic four-arm olfactometer (120 mm dia.) was used to measure behavioural responses of Bactrocera tryoni males/females to food (yeast hydrolysate) with or without 1-octanol (EAG-active compound). Prior to each experiment, acrylic components were washed with a non-ionic detergent solution, rinsed with ethanol solution and distilled water, and left to air dry. Experiments were conducted in a controlled environment room (25±2° C., 60% RH). The central area was fitted with a filter-paper base (Whatmann No. 1, 12 cm dia.) to provide traction for the walking insects. The room was illuminated from above by uniform lighting from white fluorescent light bulbs to negate directional bias. Individual flies (10-15 days old) were introduced through a hole below the olfactometer. Each fly was given 5 min to acclimatize in the olfactometer, after which the experiment was run for 10 min for each replicate. The olfactometer was rotated 90° after each replicate to eliminate any directional bias in the room. Air was drawn through the central hole at 200 ml min-1 and subsequently exhausted from the room. The central arena of the olfactometer was divided into four discrete odour fields corresponding to each of four inlet arms. A choice test was performed that used two different opposite arms. […] Fly activity in each olfactometer was video recorded. The time spent in each arm was recorded using BORIS software. […]

[12] = system: Bactrocera tryoni antenna; experiment: GC-EAD electrophysiology of ant extracts; settings: peak in Head and Headspace volatiles
Description: Coupled Gas Chromatography-Electroantennography (GC-EAG) recordings were made with Ag-glass microelectrodes filled with electroconductive gel (Spectra 360, Parker Laboratories Inc., USA). The head of male or female Bactrocera tryoni, anaesthetized by chilling, was separated from the body with a microscalpel and was placed on the tip of the indifferent electrode, making sure the base of the head is affixed to the gel in the electrode. The tip of the insect antenna was made to touch the recording electrode and was slightly inserted into the gel to stabilize the antenna. The signals were passed through a high impedance amplifier (UN-06, Syntech, Hilversum, The Netherlands) and analysed using a software package provided by Syntech. Each extract-cuticular compounds, Dufour's glands, poison glands, trail, headspace, and head extractions were tested individually. After injection of extraction samples, the effluent from the GC column was simultaneously directed to the antennal preparation and the GC detector. Separation of compounds was achieved on an Agilent Gas Chromatography system equipped with a column injector and a flame ionization detector (FID), using an Agilent HP-5 column (30 m×0.32 mm, 0.25 μm film). […] The outputs from the EAG amplifier and the FID were monitored simultaneously and analysed using the Syntech software package. […]

[13] = system: Bactrocera tryoni; experiment: Mating assay (mating disruption); assay type: in vivo; settings: of 15 trials; 5 microliters on filter paper, air pumped into arena; P<0.00001 vs control
Experimental: Mating assays were carried out at dusk, the normal mating time of B. tryoni. A pair of 15-day old male and female flies were introduced into a behavioural arena 30 min before the onset of dusk. They were allowed to acclimatize for 20 min after which 1-octanol or filtered air was pumped through the inlet of the arena. Five microliters of 1-octanol was applied on a clean filter paper. This filter paper was placed into an air-tight vessel with an inlet and outlet. Charcoal filtered air (1 litre per hour) was pumped into the vessel from the inlet and the outlet was connected to the inlet of the arena with flies. Air from a vessel with clean filter paper was used as control. Fifteen pairs were set up for both 1-octanol treatment and air control. The activity of flies was recorded overnight, and the video was analysed using BORIS software. Collected data included (1) whether a pair mated, (2) Number of copulation attempts, and (3) copula duration.

| SMILES | Eggs laid on oviposition plates vs control [1] | Eggs laid on oviposition plates vs control [2] | Eggs laid on oviposition plates vs control [3] | Eggs laid vs control [4] | Eggs laid vs control [5] | Trials with EAG activity [6] | Trials with EAG activity [7] | Trials with EAG activity [8] | Trials with EAG activity [9] | Trials with EAG activity [10] | Time spent in olfactometer arm [11] | Response in fly's antenna (GC-EAD) [12] | Trials in which flies attempted mating [13] | Trials with successful mating [13] |
| --- | --- | --- | --- | --- | --- | --- | --- | --- | --- | --- | --- | --- | --- | --- |
| CCCCCCCCCO [1-nonanol] | significantly different from control | significantly different from control | significantly different from control | significantly different from control | significantly different from control | 100 % of trials | 100 % of trials | 100 % of trials | 100 % of trials | 100 % of trials |  |  |  |  |
| CCCCCCCCO [1-octanol] | significantly different from control | significantly different from control | significantly different from control | significantly different from control | significantly different from control | 100 % of trials | 100 % of trials | 100 % of trials | 100 % of trials | 100 % of trials | less time | trigger response | none | none |
